Source: patent publication US10040789B2, “1,3,4-thiadiazole compounds and their use in treating cancer” (AstraZeneca AB, priority 2015, dated 2018)
Where two headings read alike, the source gives them in different places.

Tests used:
NCI-H1703 cells = assay: GLS Cell Proliferation Assay (NCI-H1703 cell proliferation); type: cell-based
Source text: (§1) The following assays were used to measure the effects of the compounds described herein: a) GLS Enzyme Potency Assay; b) GLS Cell Potency Assay; c) GLS Cell Proliferation Assay. During the description of the assays, generally: • i. The following abbreviations have been used: CO2=Carbon dioxide; DMEM=Dulbecco's Modified Eagle Medium; DMSO=Dimethyl sulphoxide; EDTA=Ethylenediaminetetraacetic acid; EGTA=Ethylene glycol tetraacetic acid; FCS=Foetal calf serum; h=Hour(s); NBS=Non-binding surface; SDS=Sodium dodecyl sulphate; TRIS=Tris(Hydroxymethyl)aminomethane. • ii. IC50 values were calculated using a smart fitting model in Genedata.
Assay c): GLS Cell Proliferation Assay
The ability of compounds to inhibit cell growth was measured using a 384 well plate NCI-H1703 cell proliferation assay. NCI-H1703 cells were grown in phenol red free RPMI1640, 10% FCS and 2 mM glutamine and seeded at a density of 750 cells per well in 40 μl of growth medium into clear-bottom 384 well assay plates (Corning product code 3712) and incubated for 24 h at 37° C., 5% CO2. Test compounds were prepared by dilution in 100% DMSO to give the correct dose range for 12 point concentration response and an appropriate volume (5-120 nl) dispensed directly into the assay plates containing plated cells. DMSO concentration was maintained at 0.3% by back filling with DMSO solution. Plates were incubated for 5 days at 37° C., 5% CO2, Sytox Green and Saponin added to final concentration of 2 μM and 0.25% respectively and incubated for 6 h prior to analysis. Plates were read on an Acumen eX3 (TTP Labtech) using 488 nm excitation and FITC filter set (500-530 nm) for emission. IC50 values were calculated by curve fitting to max inhibition of day zero growth using GeneData software analysis.

[1] = biological target: cellular GLS activity in PC3 cells (Homo sapiens (Human), UniProt O94925); assay: GLS Cell Potency Assay (PC3 coupled assay measuring cellular glutamate depletion); type: cell-based; conditions: PC3 cells, 6 h incubation, cellular glutamate depletion; read-out: Assay b) GLS cell MOA Mean IC50
Chain of cellular GLS activity in PC3 cells (O94925 55-669): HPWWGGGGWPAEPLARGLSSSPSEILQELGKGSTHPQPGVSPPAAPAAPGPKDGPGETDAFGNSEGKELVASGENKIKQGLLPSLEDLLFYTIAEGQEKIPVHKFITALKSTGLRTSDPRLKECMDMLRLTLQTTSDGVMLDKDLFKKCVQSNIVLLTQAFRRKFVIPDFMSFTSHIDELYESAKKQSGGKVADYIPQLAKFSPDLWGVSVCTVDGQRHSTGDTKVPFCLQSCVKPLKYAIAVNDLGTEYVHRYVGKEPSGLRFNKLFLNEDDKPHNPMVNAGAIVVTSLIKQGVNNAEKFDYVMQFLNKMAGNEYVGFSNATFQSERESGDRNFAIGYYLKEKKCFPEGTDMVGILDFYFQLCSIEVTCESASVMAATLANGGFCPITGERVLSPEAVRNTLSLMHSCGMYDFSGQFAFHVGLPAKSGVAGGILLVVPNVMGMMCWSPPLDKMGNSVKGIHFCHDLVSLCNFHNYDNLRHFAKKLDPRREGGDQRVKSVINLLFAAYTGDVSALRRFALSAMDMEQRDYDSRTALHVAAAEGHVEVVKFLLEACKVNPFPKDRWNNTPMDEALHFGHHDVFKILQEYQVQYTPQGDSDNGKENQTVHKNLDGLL
Source text: as §1
Assay b): GLS Cell Potency Assay
Compounds were assessed for their potential to inhibit cellular GLS activity by use of a PC3 coupled assay measuring cellular glutamate depletion. […] DMSO concentration was maintained at 0.3% by back filling with DMSO solution. PC3 cells were grown in phenol free DMEM, 10% dialyzed FCS, 2 mM glutamine and following dispersal by trypsinisation were plated at 5.6×10^3 cells per well in 40 μl of growth medium directly into the 384 well assay plates containing dispensed compound. After incubation for 6 h at 37° C., 5% CO2 growth media was aspirated and cells lysed in 15 μl of buffer containing 10 mM TRIS pH7.4, 100 mM NaCl, 1 mM EDTA, 1 mM EGTA, 1 mM NaF, 20 mM Na4P2O7, 2 mM Na3VO4, 1% Triton X-100, 10% glycerol, 0.1% SDS and 0.5% deoxycholate. 4 μl Of cell lysate was then transferred to a 384 well NBS plate (Corning product code 3575) and 35 μl of […] Amplex Red, 0.1375 U/mL Horseradish Peroxidase, 0.044 U/mL glutamate oxidase, 100 mM TRIS pH7.5 was added.

GLS1 = GLS1 (Homo sapiens (Human), UniProt O94925); assay: GLS Enzyme Potency Assay (Glutamate Oxidase/AmplexRed coupled assay); type: biochemical
Chain of GLS1 (O94925 63-669): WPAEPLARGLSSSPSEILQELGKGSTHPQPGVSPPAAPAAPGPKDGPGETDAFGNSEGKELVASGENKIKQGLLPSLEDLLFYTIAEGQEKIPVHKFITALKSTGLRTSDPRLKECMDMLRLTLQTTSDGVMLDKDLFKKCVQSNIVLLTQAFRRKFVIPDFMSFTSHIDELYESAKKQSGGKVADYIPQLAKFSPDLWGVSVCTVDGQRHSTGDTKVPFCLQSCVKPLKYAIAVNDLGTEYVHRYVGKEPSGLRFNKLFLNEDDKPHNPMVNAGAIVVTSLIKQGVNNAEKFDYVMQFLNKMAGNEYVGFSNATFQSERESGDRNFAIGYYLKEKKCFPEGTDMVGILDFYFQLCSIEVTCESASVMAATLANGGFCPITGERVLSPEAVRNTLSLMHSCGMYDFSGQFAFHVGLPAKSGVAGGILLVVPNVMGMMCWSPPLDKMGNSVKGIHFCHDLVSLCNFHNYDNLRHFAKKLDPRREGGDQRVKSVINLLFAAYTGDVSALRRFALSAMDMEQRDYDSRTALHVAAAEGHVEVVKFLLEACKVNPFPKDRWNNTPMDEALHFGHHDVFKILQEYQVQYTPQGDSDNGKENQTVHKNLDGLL
Source text: as §1
Assay a): GLS Enzyme Potency Assay
A Glutamate Oxidase/AmplexRed coupled assay was used to measure the ability of compounds to bind to and inhibit the activity of GLS1 in vitro. […] GLS1 was diluted to 2×working concentration and incubated at room temperature to allow the tetrameric/dimeric forms to reach steady state. Assay measurements were performed in buffer comprising 50 mM TRIS pH 7.8, 100 mM NaPO4, pH 7.8, 0.001% v/v Tween20. […] DMSO concentration was maintained at 2% by back filling with DMSO solution. […] 3 μL of 100 mM glutamine diluted in assay buffer was then added and the reaction incubated at room temperature for 60 minutes. […] An artefact version of the assay where the 6His tagged GLS protein and glutamine were replaced with assay buffer was also used to rule out non specific effects on the assay components.

[2] = Homo sapiens, 120 h; NCI-H1703 cells, 5 days incubation, Sytox Green; read-out: Assay c) Prolif Mean IC50
[3] = Homo sapiens, NCI-H1703, 120 h, NCI-H1703 cells, 5 days incubation, Sytox Green; read-out: Assay c) Prolif Mean IC50
[4] = recombinant 6His tagged GLS protein (amino acids 63-669), 60 minutes reaction with glutamine

Row | IC50 [1] | IC50 (GLS1) | IC50 (GLS1; [4]) | SMILES | IC50 (NCI-H1703 cells; [2]) | IC50 (NCI-H1703 cells; [3]) | IC50 (NCI-H1703 cells; NCI-H1703 cells, 5 days incubation, Sytox Green; read-out: Assay c) Prolif Mean IC50)
1 | 1.41 nM | 246 nM | – | O=C(Nc1nnc(N[C@@H]2CCN(c3ccc(F)nn3)C2)s1)[C@@H](c1cccc(OC(F)(F)F)c1)N1CCC1 [Example 12(b), (2R)-2-(azetidin-1-yl)-N-[5-[[(3R)-1-(6-fluoropyridazin-3-yl)pyrrolidin-3-yl]amino]-1,3,4-thiadiazol-2-yl]-2-[3-(trifluoromethoxy)phenyl]acetamide] | 12.9 nM | – | –
2 | 11.3 nM | 226 nM | – | CN(C)[C@H](C(=O)Nc1nnc(N[C@@H]2CCN(c3cccnn3)C2)s1)c1cccc(C#N)c1 [Example 13, (2S)-2-(3-cyanophenyl)-2-(dimethylamino)-N-[5-[[(3R)-1-pyridazin-3-ylpyrrolidin-3-yl]amino]-1,3,4-thiadiazol-2-yl]acetamide] | 76.8 nM | – | –
3 | 10.2 nM | – | 2260 nM | CN(C)[C@@H](C(=O)Nc1nnc(N[C@@H]2CCN(c3cccnn3)C2)s1)c1cccc(OC(F)(F)F)c1 [Example 14, (2R)-2-(dimethylamino)-N-[5-[[(3R)-1-pyridazin-3-ylpyrrolidin-3-yl]amino]-1,3,4-thiadiazol-2-yl]-2-[3-(trifluoromethoxy)phenyl]acetamide] | – | 5.23 nM | –
4 | 22.2 nM | – | 3750 nM | COc1ccc([C@H](C(=O)Nc2nnc(N[C@@H]3CCN(c4cccnn4)C3)s2)N(C)C)cc1 [Example 15, (2R)-2-(dimethylamino)-2-(4-methoxyphenyl)-N-[5-[[(3R)-1-pyridazin-3-ylpyrrolidin-3-yl]amino]-1,3,4-thiadiazol-2-yl]acetamide] | – | 152 nM | –
5 | 4.76 nM | – | 198 nM | COc1ccc([C@@H](C(=O)Nc2nnc(N[C@@H]3CCN(c4cccnn4)C3)s2)N(C)C)cc1 [Example 16, (2S)-2-(dimethylamino)-2-(4-methoxyphenyl)-N-[5-[[(3R)-1-pyridazin-3-ylpyrrolidin-3-yl]amino]-1,3,4-thiadiazol-2-yl]acetamide] | – | 131 nM | –
6 | 10.7 nM | – | 187 nM | Cc1ccccc1[C@@H](C(=O)Nc1nnc(N[C@@H]2CCN(c3cccnn3)C2)s1)N(C)C [Example 17, (2S)-2-(dimethylamino)-2-(o-tolyl)-N-[5-[[(3R)-1-pyridazin-3-ylpyrrolidin-3-yl]amino]-1,3,4-thiadiazol-2-yl]acetamide] | 163 nM | – | –
7 | 1.1 nM | – | 182 nM | CN(C)[C@H](C(=O)Nc1nnc(N[C@@H]2CCN(c3cccnn3)C2)s1)c1cccc(OC(F)(F)F)c1 [Example 18, (2S)-2-(dimethylamino)-N-[5-[[(3R)-1-pyridazin-3-ylpyrrolidin-3-yl]amino]-1,3,4-thiadiazol-2-yl]-2-[3-(trifluoromethoxy)phenyl]acetamide] | – | – | 3.51 nM
